Data reported in ChEMBL document CHEMBL1138883, “Synthesis and biological evaluation of new asymmetrical bisintercalators as potential antitumor drugs” (2006).
Calls of active or inactive are those of the source. The rule behind the calls is not given here.

Columns and labels:
[1] = Ratio of K(app) for [A-T] to [G-C]
[2] = tested on: PC-3; assay: Cytotoxicity against PC3 cells by SRB assay after 48 hrs; assay type: functional; settings: Homo sapiens, PC-3, 48 h
[3] = tested on: PC-3; assay: Induction of apoptosis in PC3 measured as percentage of late apoptotic cells by biparametric PI/Annexin V assay at 1.6 uM after 4 hrs; assay type: functional, Homo sapiens
[4] = tested on: PC-3; assay: Induction of apoptosis in PC3 measured as percentage of necrotic cells by biparametric PI/Annexin V assay at 1.6 uM after 8 hrs; assay type: functional, Homo sapiens
[5] = tested on: PC-3; assay: Induction of apoptosis in PC3 measured as percentage of necrotic cells by biparametric PI/Annexin V assay at 1.6 uM after 48 hrs; assay type: functional, Homo sapiens
[6] = tested on: PC-3; assay: Induction of necrosis in PC3 cells by DNA fragmentation assay; assay type: functional, cell-based; settings: Homo sapiens
[7] = tested on: PC-3; assay: Induction of apoptosis in PC3 cells measured as percentage of living cells by biparametric PI/Annexin V assay at 1.6 uM after 24 hrs; assay type: functional, Homo sapiens
[8] = tested on: PC-3; assay: Induction of apoptosis in PC3 cells measured as percentage of living cells by biparametric PI/Annexin V assay at 1.6 uM after 8 hrs; assay type: functional, Homo sapiens
[9] = tested on: PC-3; assay: Induction of apoptosis in PC3 measured as percentage of early apoptotic cells by biparametric PI/Annexin V assay at 1.6 uM after 4 hrs; assay type: functional, Homo sapiens
[10] = tested on: PC-3; assay: Induction of apoptosis in PC3 measured as percentage of necrotic cells by biparametric PI/Annexin V assay at 1.6 uM after 24 hrs; assay type: functional, Homo sapiens
[11] = tested on: PC-3; assay: Induction of apoptosis in PC3 measured as percentage of late apoptotic cells by biparametric PI/Annexin V assay at 1.6 uM after 8 hrs; assay type: functional, Homo sapiens
[12] = tested on: PC-3; assay: Induction of apoptosis in PC3 cells measured as percentage of living cells by biparametric PI/Annexin V assay at 1.6 uM after 48 hrs; assay type: functional, Homo sapiens
[13] = tested on: PC-3; assay: Induction of apoptosis in PC3 cells measured as percentage of living cells by biparametric PI/Annexin V assay at 1.6 uM after 4 hrs; assay type: functional, Homo sapiens
[14] = tested on: PC-3; assay: Induction of apoptosis in PC3 measured as percentage of late apoptotic cells by biparametric PI/Annexin V assay at 1.6 uM after 48 hrs; assay type: functional, Homo sapiens
[15] = tested on: PC-3; assay: Induction of apoptosis in PC3 measured as percentage of early apoptotic cells by biparametric PI/Annexin V assay at 1.6 uM after 24 hrs; assay type: functional, Homo sapiens
[16] = tested on: PC-3; assay: Induction of apoptosis in PC3 measured as percentage of necrotic cells by biparametric PI/Annexin V assay at 1.6 uM after 4 hrs; assay type: functional, Homo sapiens
[17] = tested on: PC-3; assay: Induction of apoptosis in PC3 measured as percentage of early apoptotic cells by biparametric PI/Annexin V assay at 1.6 uM after 48 hrs; assay type: functional, Homo sapiens
[18] = tested on: PC-3; assay: Reduction in PC3 cell viability after 48 hrs by FDA flow cytometer assay; assay type: functional, cell-based; settings: Homo sapiens
[19] = tested on: PC-3; assay: Induction of apoptosis in PC3 measured as percentage of early apoptotic cells by biparametric PI/Annexin V assay at 1.6 uM after 8 hrs; assay type: functional, Homo sapiens
[20] = tested on: PC-3; assay: Induction of apoptosis in PC3 measured as percentage of late apoptotic cells by biparametric PI/Annexin V assay at 1.6 uM after 24 hrs; assay type: functional, Homo sapiens
[21] = tested on: PC-3; assay: Induction of apoptosis in PC3 measured as percentage of necrotic cells by biparametric PI/Annexin V assay at 2.6 uM after 4 hrs; assay type: functional, Homo sapiens
[22] = tested on: PC-3; assay: Induction of early apoptosis in PC3 cells by DNA fragmentation assay; assay type: functional, cell-based; settings: Homo sapiens
[23] = tested on: PC-3; assay: Induction of apoptosis in PC3 cells measured as percentage of living cells by biparametric PI/Annexin V assay at 2.6 uM after 24 hrs; assay type: functional, Homo sapiens
[24] = tested on: PC-3; assay: Induction of apoptosis in PC3 cells measured as percentage of living cells by biparametric PI/Annexin V assay at 2.6 uM after 8 hrs; assay type: functional, Homo sapiens
[25] = tested on: PC-3; assay: Induction of apoptosis in PC3 measured as percentage of late apoptotic cells by biparametric PI/Annexin V assay at 2.6 uM after 4 hrs; assay type: functional, Homo sapiens
[26] = tested on: PC-3; assay: Induction of apoptosis in PC3 measured as percentage of early apoptotic cells by biparametric PI/Annexin V assay at 2.6 uM after 8 hrs; assay type: functional, Homo sapiens
[27] = tested on: PC-3; assay: Induction of apoptosis in PC3 measured as percentage of necrotic cells by biparametric PI/Annexin V assay at 2.6 uM after 48 hrs; assay type: functional, Homo sapiens
[28] = tested on: PC-3; assay: Induction of apoptosis in PC3 measured as percentage of late apoptotic cells by biparametric PI/Annexin V assay at 2.6 uM after 48 hrs; assay type: functional, Homo sapiens
[29] = tested on: PC-3; assay: Induction of apoptosis in PC3 measured as percentage of necrotic cells by biparametric PI/Annexin V assay at 2.6 uM after 24 hrs; assay type: functional, Homo sapiens
[30] = tested on: PC-3; assay: Induction of apoptosis in PC3 measured as percentage of early apoptotic cells by biparametric PI/Annexin V assay at 2.6 uM after 4 hrs; assay type: functional, Homo sapiens
[31] = tested on: PC-3; assay: Induction of apoptosis in PC3 cells measured as percentage of living cells by biparametric PI/Annexin V assay at 2.6 uM after 48 hrs; assay type: functional, Homo sapiens
[32] = tested on: PC-3; assay: Induction of apoptosis in PC3 cells measured as percentage of living cells by biparametric PI/Annexin V assay at 2.6 uM after 4 hrs; assay type: functional, Homo sapiens
[33] = tested on: PC-3; assay: Induction of apoptosis in PC3 measured as percentage of early apoptotic cells by biparametric PI/Annexin V assay at 2.6 uM after 48 hrs; assay type: functional, Homo sapiens
[34] = tested on: PC-3; assay: Induction of apoptosis in PC3 measured as percentage of late apoptotic cells by biparametric PI/Annexin V assay at 2.6 uM after 24 hrs; assay type: functional, Homo sapiens
[35] = tested on: PC-3; assay: Induction of apoptosis in PC3 measured as percentage of necrotic cells by biparametric PI/Annexin V assay at 2.6 uM after 8 hrs; assay type: functional, Homo sapiens
[36] = tested on: PC-3; assay: Induction of apoptosis in PC3 measured as percentage of early apoptotic cells by biparametric PI/Annexin V assay at 2.6 uM after 24 hrs; assay type: functional, Homo sapiens
[37] = tested on: PC-3; assay: Induction of apoptosis in PC3 measured as percentage of late apoptotic cells by biparametric PI/Annexin V assay at 2.6 uM after 8 hrs; assay type: functional, Homo sapiens

Structure (SMILES)	Selectivity ratio [1]	GI50 [2]	LC50 (concentration for 50% net cell kill) [2]	TGI [2]	other results
CN(C)CCNC(=O)c1ccc(NCCCN(C)CCCN2C(=O)c3cccc4cccc(c34)C2=O)c2c(O)c3ccccc3nc12	4.1	520 nM	5400 nM	2000 nM	
CN(C)CCn1c(=O)c2ccc(NCCCN(C)CCCN3C(=O)c4cccc5cccc(c45)C3=O)c3c(=O)c4ccccc4n(c1=O)c23	2.4		2600 nM		
COc1ccc2c(c1)c(=O)c1c(NCCCN(C)CCCN3C(=O)c4cccc5cc([N+](=O)[O-])cc(c45)C3=O)ccc3c(=O)n(CCN(C)C)c(=O)n2c31	4.8	83 nM	9300 nM	500 nM	
CN(C)CCN1C(=O)c2cccc3cc([N+](=O)[O-])cc(c23)C1=O [MITONAFIDE]		150 nM		3800 nM	
CN(C)CCNC(=O)c1ccc(NCCNCCNCCN2C(=O)c3cccc4cccc(c34)C2=O)c2c(O)c3cc([N+](=O)[O-])ccc3nc12		62 nM	2500 nM	390 nM	
COc1cc2c(=O)c3c(NCCCN(C)CCCN4C(=O)c5cccc6cc([N+](=O)[O-])cc(c56)C4=O)ccc4c(=O)n(CCN(C)C)c(=O)n(c2cc1OC)c43	1.6	17 nM	4000 nM	340 nM	
CN(C)CCCn1c(=O)c2ccc(NCCCN(C)CCCN3C(=O)c4cccc5cc([N+](=O)[O-])cc(c45)C3=O)c3c(=O)c4ccccc4n(c1=O)c23	20	1700 nM	6600 nM	3200 nM	
CN(C)CCCNC(=O)c1ccc(NCCCN(C)CCCN2C(=O)c3cccc4cccc(c34)C2=O)c2c(O)c3ccccc3nc12	6.9	600 nM	4100 nM	990 nM	
CN(C)CCNC(=O)c1ccc(NCCCN(C)CCCNc2ccc3c(=O)n(CCN(C)C)c(=O)n4c5ccccc5c(=O)c2c34)c2c(O)c3ccccc3nc12	1.3	100 nM	8300 nM	1000 nM	
COc1ccc2c(c1)c(=O)c1c(NCCCN(C)CCCN3C(=O)c4cccc5cccc(c45)C3=O)ccc3c(=O)n(CCN(C)C)c(=O)n2c31	4.5	51 nM	4000 nM	850 nM	
CN(C)CCNC(=O)c1ccc(NCCCN(C)CCCN2C(=O)c3cccc4cc([N+](=O)[O-])cc(c34)C2=O)c2c(O)c3ccccc3nc12	7.1	600 nM	4400 nM	1000 nM	
COc1cc2nc3c(C(=O)NCCN(C)C)ccc(NCCCN(C)CCCN4C(=O)c5cccc6cccc(c56)C4=O)c3c(O)c2cc1OC	1.3	150 nM	> 50000 nM	3800 nM	
CN(C)CCNC(=O)c1ccc(NCCCN(C)CCCN2C(=O)c3cccc4cc([N+](=O)[O-])cc(c34)C2=O)c2c(O)c3cc([N+](=O)[O-])ccc3nc12	2.1	8 nM	4100 nM	1300 nM	
CN(C)CCNC(=O)c1ccc(NCCCN(C)CCCNc2ccc3c(=O)n(CCN(C)C)c(=O)n4c5ccccc5c(=O)c2c34)c2c(O)c3cc([N+](=O)[O-])ccc3nc12.Cl	1.9	7 nM	1600 nM	160 nM	Activity [3]: 3%; Activity [4]: 37.9%; Activity [5]: 55.7%; Activity [6]: Active; Activity [7]: 37.5%; Activity [8]: 53%; Activity [9]: 1.9%; Activity [10]: 44%; Activity [11]: 5.5%; Activity [12]: 5%; Activity [13]: 66.5%; Activity [14]: 35.2%; Activity [15]: 2.9%; Activity [16]: 28.6%; Activity [17]: 4.1%; Activity [18]: Time-dependent effect; Activity [19]: 3.6%; Activity [20]: 15.6%
CN(C)CCCn1c(=O)c2ccc(NCCCN(C)CCCN3C(=O)c4cccc5cccc(c45)C3=O)c3c(=O)c4ccccc4n(c1=O)c23	3.4	420 nM	3800 nM	830 nM	
CN(C)CCNC(=O)c1ccc(NCCCN(C)CCCN2C(=O)c3cccc4cccc(c34)C2=O)c2c(O)c3cc([N+](=O)[O-])ccc3nc12	1.4	89 nM	3000 nM	630 nM	
CN(C)CCCNC(=O)c1ccc(NCCCN(C)CCCN2C(=O)c3cccc4cc([N+](=O)[O-])cc(c34)C2=O)c2c(O)c3ccccc3nc12	6.1	50 nM	3600 nM	90 nM	
CN(C)CCn1c(=O)c2ccc(NCCCN(C)CCCN3C(=O)c4cccc5cc([N+](=O)[O-])cc(c45)C3=O)c3c(=O)c4ccccc4n(c1=O)c23.Cl	4.3		2600 nM		Activity [21]: 16.3%; Activity [22]: Active; Activity [23]: 31.5%; Activity [24]: 49%; Activity [25]: 3.5%; Activity [26]: 16.3%; Activity [27]: 87.3%; Activity [28]: 7.5%; Activity [29]: 28.6%; Activity [30]: 12.5%; Activity [31]: 1.2%; Activity [32]: 67.7%; Activity [33]: 4%; Activity [34]: 6.3%; Activity [35]: 26.9%; Activity [18]: Time-dependent effect; Activity [36]: 33.6%; Activity [37]: 7.8%
CN(C)CCCNC(=O)c1ccc(NCCCN(C)CCCNc2ccc3c(=O)n(CCCN(C)C)c(=O)n4c5ccccc5c(=O)c2c34)c2c(O)c3ccccc3nc12	14	250 nM	2500 nM	600 nM	
